Target: T1, hTac1-hM4D (Homo sapiens, UniProt P08173, A203G/Y113C)
T1 construct: expressed in transfected cells; host or cells: rat trigeminal ganglion neurons in vivo, viral vector with Tac1 promoter
T1 sequence (P08173 1-479 Y113C/A203G): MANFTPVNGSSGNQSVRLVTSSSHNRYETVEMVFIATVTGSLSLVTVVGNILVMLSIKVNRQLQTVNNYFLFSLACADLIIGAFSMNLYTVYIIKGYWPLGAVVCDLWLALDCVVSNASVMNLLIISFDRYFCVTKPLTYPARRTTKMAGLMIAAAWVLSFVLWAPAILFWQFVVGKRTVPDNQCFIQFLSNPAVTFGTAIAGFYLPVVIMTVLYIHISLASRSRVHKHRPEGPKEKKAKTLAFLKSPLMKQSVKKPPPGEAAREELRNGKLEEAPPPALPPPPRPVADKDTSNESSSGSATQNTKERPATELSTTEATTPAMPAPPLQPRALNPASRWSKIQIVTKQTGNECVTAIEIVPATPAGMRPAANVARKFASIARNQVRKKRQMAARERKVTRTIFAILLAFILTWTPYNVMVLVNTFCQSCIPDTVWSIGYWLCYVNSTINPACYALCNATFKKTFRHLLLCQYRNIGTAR
Assay: von Frey detection threshold, Tac1-DREADD (hTac1-hM4D) in right trigeminal ganglion, non-CCI animals
Assay type: in vivo, rat
Details: females, n=7 per group, CNO i.p. vs vehicle
Source text: The effects of Tac1-DREADD activation with CNO on von Frey detection threshold were also studied (FIG. 7). All animals (female, n=7 per group) had Tachykinin 1-DREADD (hTac1-hM4D; Tac1 promoter driven DREADD) injected into the right trigeminal ganglion. Average von Frey detection thresholds (±SEM) are plotted following intraperitoneal administration of CNO or vehicle.

C[N+]1([O-])CCN(C2=Nc3cc(Cl)ccc3Nc3ccccc32)CC1 [CNO, clozapine N-oxide] was tested, and the “von Frey detection threshold, contralateral vibrissal pad” value (F=0.4, P=0.6) was “no significant effect” and the “von Frey detection threshold, ipsilateral vibrissal pad” value (F=1.4, P=0.3) was “no significant effect”.
